Reference: patent US20050026849A1, “Water soluble formulations of digitalis glycosides for treating cell-proliferative and other diseases” (priority 2003, published 2005)

Experiments:
[1] = Solubilization in aqueous hydroxypropyl-cyclodextrin solution; format: physicochemical
Description: (§1) 100 milligrams of oleandrin was weighed and placed in a 5 mL scintillation tube. 1.5 mL of absolute ethanol was added to the tube and shaken until the oleandrin was completely dissolved. 5 grams of pyrogen free hydroxypropyl-β-cyclodextrin (sold by, Sigma-Aldrich, Inc., St. Louis, Mo., USA) was weighed on an analytical scale and placed in a graduated cylinder. Water was added with shaking until the volume reached 90 ml. The above ethanolic solution of oleandrin was added to the aqueous solution containing hydroxypropyl-β-cyclodextrin with stirring. A clear solution was obtained. Water was added to the clear solution to make the total volume to 100 mL. Thus, 1 mg oleandrin was effectively solubilized in 1 ml of 5% solution of hydroxypropyl-β-cyclodextrin. The solution was sterile-filtered through a 0.22 μm filter. The suspension was frozen below −40° C. and lyophilized. The lyophilized cake was reconstituted with sterile water for injection prior to further use.
The previous experiment was repeated using a 2% solution of hydroxypropyl-β-cyclodextrin prepared as in Example 1. 100 mg of oleandrin was dissolved in 100 mL of water containing 2.5 grams of hydroxypropyl-β-cyclodextrin. The solution was sterile-filtered through a 0.22 μm filter. The solution was frozen below −40° C. and lyophilized. The lyophilized cake was reconstituted with sterile water for injection prior to further use.
The experiment in example 1 was repeated using a 100 mg of Odoroside-A instead of oleandrin. 100 mg of Odoroside-A was dissolved in 5 grams of hydroxypropyl-β-cyclodextrin in 100 mL of water. The solution was sterile-filtered through a 0.22 μm filter. The solution was frozen below −40° C. and lyophilized. The lyophilized cake was reconstituted with sterile water for injection prior to further use.
as §1, with “5mL” for “5 mL”, “1-2” for “1.5”, “2.5” for “5”, “hydroxypropyl-γ-cyclodextrin” for “hydroxypropyl-β-cyclodextrin”, “2.5%” for “5%”, “hydroxypropyl-γ-cyclodextrin.” for “hydroxypropyl-β-cyclodextrin.”
as §1, with “of Proscillaridin-A” for “of oleandrin”, “tube. 1-2” for “tube. 1.5”, “the Proscillaridin-A” for “the oleandrin”, “dissolved. 2” for “dissolved. 5”, “mg Proscillaridin-A” for “mg oleandrin”, “of 2%” for “of 5%”
The previous experiment was repeated using a 5% solution of hydroxypropyl-β-cyclodextrin prepared as in Example 5. […]

[2] = test system: androgen-independent human prostate cancer cell lines; conditions: in vitro; cited from earlier work
[3] = test system: primary cultures of tumor cells from patients and a human cell line panel; conditions: cited from earlier work
[4] = oral tablet containing 0.25 mg, humans; cited from earlier work
[5] = test system: various cancer cell lines; conditions: cited from earlier work
[6] = test system: different human malignant cell lines; conditions: non-toxic concentrations; cited from earlier work
[7] = rapidly dissolving γ-cyclodextrin complex (molar ratio 1:4), oral, dogs; cited from earlier work
[8] = Oleandrin stirred and shaken with water; format: physicochemical; conditions: 10 mg stirred and shaken with 10 ml of water, after 20 minutes
Description: 10 milligrams (mg) of oleandrin was stirred and shaken with 10 ml of water in a test tube.

[9] = test system: FGF-2 release from PC3 cells; conditions: 0.1 ng/mL; cited from earlier work
[10] = test system: FGF-2 release from DU145 cells; conditions: 0.1 ng/mL; cited from earlier work
NF-κB = conditions: cited from earlier work
AP-1 = conditions: induced by TNF and other agents; cited from earlier work
human cancer cells = conditions: cited from earlier work
[11] = in vivo; cited from earlier work
[12] = in 100 mL of water containing 5 grams of hydroxypropyl-β-cyclodextrin
[13] = in 1 ml of 2.5% solution of hydroxypropyl-γ-cyclodextrin
[14] = in 50 ml of 9.8% solution of hydroxypropyl-β-cyclodextrin, 70-80 degree centigrade

## CO[C@@H]1C[C@H](O[C@H]2CC[C@@]3(C)[C@H](CC[C@@H]4[C@@H]3CC[C@]3(C)[C@@H](C5=CC(=O)OC5)CC[C@]43O)C2)O[C@H](C)[C@@H]1O [Odoroside-A, Odoroside A]
[1]; [12]
  amount dissolved: 100 mg

## C[C@@H]1O[C@@H](O[C@H]2C[C@@H](O)[C@]3(CO)[C@H]4[C@H](O)C[C@]5(C)[C@@H](C6=CC(=O)OC6)CC[C@]5(O)[C@@H]4CC[C@]3(O)C2)[C@H](O)[C@H](O)[C@H]1O [Ouabain]
[2]
  induction of apoptosis: induce apoptosis

## C[C@@H]1O[C@@H](O[C@@H]2C=C3CC[C@@H]4[C@H](CC[C@]5(C)[C@@H](c6ccc(=O)oc6)CC[C@]45O)[C@@]3(C)CC2)[C@H](O)[C@H](O)[C@H]1O [Proscillaridin-A, Proscillaridin A, reference compound]
[1]; in 1 ml of 2% solution of hydroxypropyl-β-cyclodextrin
  amount effectively solubilized: 1 mg
[1]; [13]
  amount effectively solubilized: 1 mg
[1]; [14]
  amount effectively solubilized: 100 mg
[1]; [12]
  amount dissolved: 100 mg
[3]
  selective toxicity solid vs hematological tumor cells: no selective toxicity
[4]
  bioavailability: 20-30%

## CO[C@@H]1C[C@H](O[C@H]2CC[C@@]3(C)[C@H](CC[C@@]45O[C@@]46CC[C@H](C4=CC(=O)OC4)[C@@]6(C)CC[C@H]35)C2)O[C@H](C)[C@@H]1O [adynerin]
[5]
  anti-cancer activity: significant anti-cancer activities

## C[C@H]1O[C@@H](O[C@H]2[C@@H](O)C[C@H](O[C@H]3[C@@H](O)C[C@H](O[C@H]4CC[C@@]5(C)[C@H](CC[C@@H]6[C@@H]5CC[C@]5(C)[C@@H](C7=CC(=O)OC7)CC[C@]65O)C4)O[C@@H]3C)O[C@@H]2C)C[C@H](O)[C@@H]1O [digitoxin]
[3]
  selective toxicity solid vs hematological tumor cells: selective toxicity against solid tumor cells
[6]
  growth and apoptosis: inhibits growth and induce apoptosis

## C[C@H]1O[C@@H](O[C@H]2[C@@H](O)C[C@H](O[C@H]3[C@@H](O)C[C@H](O[C@H]4CC[C@@]5(C)[C@H](CC[C@@H]6[C@@H]5C[C@@H](O)[C@]5(C)[C@@H](C7=CC(=O)OC7)CC[C@]65O)C4)O[C@@H]3C)O[C@@H]2C)C[C@H](O)[C@@H]1O [digoxin]
[3]
  selective toxicity solid vs hematological tumor cells: selective toxicity against solid tumor cells
[7]
  increase of plasma levels: approximately 5.4 fold
[2]
  induction of apoptosis: induce apoptosis
[6]
  growth and apoptosis: inhibits growth and induce apoptosis

## CO[C@H]1C[C@H](O[C@H]2CC[C@@]3(C)[C@H](CC[C@@H]4[C@@H]3CC[C@]3(C)[C@@H](C5=CC(=O)OC5)[C@@H](OC(C)=O)C[C@]43O)C2)O[C@@H](C)[C@@H]1O [oleandrin, 16b-acetoxy-3b-[(2,6 dideoxy-3-0-methyl-a2-L-arabino-hexopyranosyl)oxy]-14-hydroxy-5β, 14β-card-20(22)-enolide]
[8]
  dissolution in water: Appreciable quantities of compound remained out of solution
[1]; [13]
  amount effectively solubilized: 1 mg
[1]; in 1 ml of 5% solution of hydroxypropyl-β-cyclodextrin
  amount effectively solubilized: 1 mg
[1]; [14]
  amount effectively solubilized: 100 mg
[1]; in 100 mL of water containing 2.5 grams of hydroxypropyl-β-cyclodextrin (called 2% solution)
  amount dissolved: 100 mg
[9]
  inhibition of FGF-2 release: 45.7%
[10]
  inhibition of FGF-2 release: 49.9%
[2]
  induction of apoptosis: induce apoptosis
NF-κB
  TNF-induced activation of NF-κB: blocked
AP-1
  AP-1 activation: blocked
Human cancer cells
  cell killing: able to induce cell killing
[5]
  anti-cancer activity: significant anti-cancer activities
[11]
  time of elimination from the body: one to two

## C[C@H]1[C@H](C)CC[C@]2(C(=O)O)CC[C@]3(C)C(=CC[C@@H]4[C@@]5(C)CC[C@H](O)C(C)(C)[C@@H]5CC[C@]43C)[C@H]12 [ursolic acid]
[5]
  anti-cancer activity: significant anti-cancer activities
